pIC50: −log10 of the molar value. Read-outs that look alike come from different tables or passages of the source.
How the values were obtained:
[1] = system: naïve KB cells; assay: IC50 assay in naïve KB cells; assay type: cell-based; conditions: Homo sapiens; naïve (regular) KB cells
Description: (§1) Naïve human KB cell line were purchased from ATCC and maintained in folic acid free RPMI 1640 media/10% FBS, and 1% of penicillin/streptomycin. To develop the TOP1 inhibitor resistant KB cells, the cells in flask (50-60% confluence) were repeatedly treated with increasing concentration of exatecan, topotecan, SN-38 or irinotecan for over 4 months. The starting TOP1 inhibitor treatment concentration was close to the KB cell's IC90 values. After each treatment, the cells were carefully washed with fresh RPMI 1640 media and left to proliferate for an additional 2-3 days until reaching 50-60% confluence.
(§2) Both naïve and TOP1 inhibitor resistant KB cell were cultured in folic acid-free medium (RPMI1640, ThermoFisher, GIBCO). Cells were plated in opaque 96-well plates at a density of 3×10^3 cells per well (total of 90 μL) and allowed to attach overnight. […] After exposing the TOP1 inhibitors with both types of cells for the same period of time, the cell viability was assessed using the CellTiter-Glo2.0 assay (Promega) according to manufacturer's instructions. Data for both viability and proliferation were plotted using Prism7 software (GraphPad). The resistant factor can be calculated by using the following equation:

[2] = system: exatecan-resistant KB cells; assay: IC50 assay in exatecan-resistant KB cells; assay type: cell-based, human; conditions: for pIC50: Homo sapiens
Description: To develop the TOP1 inhibitor resistant KB cells, the cells in flask (50-60% confluence) were repeatedly treated with increasing concentration of exatecan, topotecan, SN-38 or irinotecan for over 4 months. The starting TOP1 inhibitor treatment concentration was close to the KB cell's IC90 values.
The following day, cells were treated with selected TOP1 inhibitors (e.g., free exatecan) or NDC at suitable concentration ranges. […] The resistant factor can be calculated by using the following equation: […]

[3] = system: irinotecan-resistant KB cells; assay: IC50 assay in irinotecan-resistant KB cells; assay type: cell-based, human
Description: as §1, §2

Structure (SMILES)	pIC50 [1]	resistance of exatecan-resistant versus naïve KB cells [2]	pIC50 ([2]; KB, KB cells pretreated 7× with exatecan)	pIC50 ([2]; KB cells pretreated 4× with exatecan, read-out: IC50)	resistance of irinotecan-resistant versus naïve KB cells [3]	pIC50 ([3]; Homo sapiens, irinotecan-resistant KB cells)
CC[C@@]1(O)C(=O)OCc2c1cc1n(c2=O)Cc2c-1nc1cc(F)c(C)c3c1c2[C@@H](N)CC3 [exatecan]	8.70	> 8 ×	7.77	8.40		
CCc1c2c(nc3ccc(OC(=O)N4CCC(N5CCCCC5)CC4)cc13)-c1cc3c(c(=O)n1C2)COC(=O)[C@]3(O)CC [irinotecan]	6.18				5 ×	5.44
